Source: paper PMC6467771 (Journal of medicinal chemistry, 2019)
Values after ≈ are worked out from the molar mass of the structure shown. Like-named read-outs stand apart in the source and are kept apart here.

Key:
[1] = Stability in simulated gastric fluid; assay type: in vitro ADME
[2] = Kinetic aqueous solubility; assay type: physicochemical; settings: pH 7.4; for solubility kinetic: aqueous solution
[3] = Stability in simulated intestinal fluid; assay type: in vitro ADME
[4] = Mouse liver microsome stability; assay type: in vitro ADME
FmlH = FmlH (Escherichia coli, UniProt Q1RBS0); assay type: binding, Escherichia coli (UPEC, CFT073)
Mouse plasma stability = assay type: in vitro ADME
[5] = tested on: uropathogenic Escherichia coli (UPEC); settings: cited from earlier work
Rat pharmacokinetics = assay type: in vivo; settings: for renal clearance to the urine: after IV and PO administration
[6] = IC50, ELISA, FmlH binding to desialylated bovine submaxillary mucin, average of four or more replicates

N-((2S,3S,4R,5R)-4/5-Dihydro xy-6-(hydroxymethyl)-2-((6-methyl-3’-(methylsulfonamido)-[1,1’-biphenyl]-2-yl)oxy)tetrahydro-2H-pyran-3-yl)-2,2,2-trifluoroacetimidic Acid [Compound 88]
SGF (% remaining @ 6 h) [1]: 91%
kinetic solubility ([2]; aqueous): 164 µM
SIF (% remaining @ 2 h) [3]: 89%
mouse liver microsomes (t1/2 min) [4]: >2.42 h
IC50 (FmlH; ELISA, FmlH binding to desialylated bovine submaxillary mucin, average of four or more replicates): 48 nM
mouse plasma (% remaining @ 2 h) (Mouse plasma stability): 89%

CC(=O)N[C@H]1[C@H](Oc2ccccc2-c2cccc(C(=O)O)c2)O[C@H](CO)[C@H](O)[C@@H]1O [Compound 1]
effect on bacterial titers in bladder and kidney ([5]; co-administration with 4Z269, a mannoside inhibitor of FimH): further reduced bacterial titers in both the bladder and kidney
effect on bladder and kidney CFUs ([5]; treatment model of chronic cystitis): significantly reduce bladder and kidney CFUs
IC50 (FmlH; [6]): 640 nM

CC(=O)N[C@H]1[C@H](Oc2cccc(F)c2-c2cccc(NS(C)(=O)=O)c2)O[C@H](CO)[C@H](O)[C@@H]1O [Compound 80, N-((2S,3R,4R,5R,6R)-2-((6-Fluoro-3’-(methylsulfonamido)-[1,1’- biphenyl]-2-yl)oxy)-4,5-dihydroxy-6-(hydroxymethyl)tetrahydro-2H-pyran-3-yl)acetamide]
solubility kinetic [2]: 197 µM (≈ 95.4 µg/mL)
IC50 (FmlH; [6]): 88 nM

CC(=O)N[C@H]1[C@H](Oc2cccc(C)c2-c2cccc(NS(=O)(=O)C3CC3)c2)O[C@H](CO)[C@H](O)[C@@H]1O [Compound 86, N-((2S,3R,4R,5R,6R)-2-((3’-(Cyclopropanesulfonamido)-6-meth-yl-[1,1’-biphenyl]-2-yl)oxy)-4,5-dihydroxy-6-(hydroxymethyl)-tetrahydro-2H-pyran-3-yl)acetamide]
renal clearance to the urine (Rat pharmacokinetics): low renal clearance to the urine
solubility kinetic [2]: 196 µM (≈ 99.3 µg/mL)
IC50 (FmlH; [6]): 51 nM

CC(=O)N[C@H]1[C@H](Oc2cccc(C)c2-c2cccc(NS(C)(=O)=O)c2)O[C@H](CO)[C@H](O)[C@@H]1O [Compound 84, N-((2S,3R/4R/5R,6R)-4/5-Dihydroxy-6-(hydroxymethyl)-2-((6-methyl-3’-(methylsulfonamido)-[1,1’-biphenyl]-2-yl)oxy)-tetrahydro-2H-pyran-3-yl)acetamide]
solubility kinetic [2]: 195 µM (≈ 93.7 µg/mL)
IC50 (FmlH; [6]): 62 nM
IC50 (FmlH; IC50 expressed as a concentration, converted from IC50 of 120 nM): 120 nM

CC(=O)NC1[C@H](Oc2cccc(C(F)(F)F)c2-c2cccc(NS(C)(=O)=O)c2)O[C@H](CO)[C@H](O)[C@@H]1O (stereo in doubt) [Compound 90, N-((2S,3S,4R,5R)-4,5-Dihydroxy-6-(hydroxymethyl)-2-((3’-(meth-ylsulfonamido)-6-(trifluoromethyl)-[1,1’-biphenyl]-2-yl)oxy)-tetrahydro-2H-pyran-3-yl)acetamide]
renal clearance to the urine (Rat pharmacokinetics): low renal clearance to the urine
clearance (Rat pharmacokinetics; plasma, iv, 3 mg/kg): 57 mL/min/kg
fold greater potency / improvement in activity relative to 1 (FmlH; ELISA IC50 ratio): ~20 fold
IC50 (FmlH; [6]): 34 nM

Cc1cccc(O[C@@H]2O[C@H](CO)[C@H](O)[C@H](O)[C@H]2NS(C)(=O)=O)c1-c1cccc(NS(C)(=O)=O)c1 [Compound 89, N-((2S,3R,4R,5R,6R)-4,5-Dihydroxy-6-(hydroxymethyl)-2-((6-methyl-3’-(methylsulfonamido)-[1,1’-biphenyl]-2-yl)oxy)-tetrahydro-2H-pyran-3-yl)methanesulfonamide]
IC50 (FmlH; [6]): 3500 nM

CC(=O)N[C@H]1[C@H](Oc2cccc(C#N)c2-c2cccc(NS(C)(=O)=O)c2)O[C@H](CO)[C@H](O)[C@@H]1O [Compound 79, N-((2S,3S,4R,5R)-2-((6-Cyano-3’-(methylsulfonamido)-[1,1’-bi-phenyl]-2-yl)oxy)-4,5-dihydroxy-6-(hydroxymethyl)tetra’hydro-2H-pyran-3-yl)acetamide]
IC50 (FmlH; [6]): 44 nM

COc1ccc(O)cc1-c1ccccc1O[C@@H]1O[C@H](CO)[C@H](O)[C@H](O)[C@H]1NC(C)=O [Compound 34, N-((2S,3R,4R,5R,6R)-4,5-Dihydroxy-2-((5’-hydroxy-2’ methoxy-[1,1’-biphenyl]-2-yl)oxy)-6-(hydroxymethyl)tetrahydro-2H-pyran-3-yl)acetamide]
IC50 (FmlH; [6]): 510 nM

COc1ccc(C(=O)O)cc1-c1ccccc1O[C@@H]1O[C@H](CO)[C@H](O)[C@H](O)[C@H]1NC(C)=O [Compound 31, 2’-(((2S,3R,4R,5R,6R)-3-Acetamido-4,5-dihydroxy-6 (hydroxymethyl)tetrahydro-2H-pyran-2-yl)oxy)-6-methoxy-[1,1’- biphenyl]-3-carboxylic Acid]
fold drop in activity relative to 1 (FmlH; ELISA IC50 ratio): 6 fold
IC50 (FmlH; [6]): 3900 nM

CC(=O)N[C@H]1[C@H](Oc2cccc(C(=O)OCc3ccccc3)c2-c2cccc(NS(C)(=O)=O)c2)O[C@H](CO)[C@H](O)[C@@H]1O [Compound 81, Benzyl6-(((2S,3S,4R,5R)-3-Acetamido-4,5-dihydroxy-6-(hydroxymethyl)tetrahydro-2H-pyran-2-yl)oxy)-3’-(methylsulfona-mido)-[1,1’-biphenyl]-2-carboxylate]
IC50 (FmlH; [6]): 89 nM
